Reference: ChEMBL document CHEMBL1155537, “Looking for a 5-HT7 radiotracer for positron emission tomography” (Bioorg Med Chem Lett, 2010)

Biological target: 5-hydroxytryptamine receptor 7 (Homo sapiens) (UniProt P34969)
Experiment: Binding affinity to human 5HT7 receptor expressed in CHO cells
Type: cell-based

Sequence of 5-hydroxytryptamine receptor 7 (Homo sapiens) (P34969 whole entry): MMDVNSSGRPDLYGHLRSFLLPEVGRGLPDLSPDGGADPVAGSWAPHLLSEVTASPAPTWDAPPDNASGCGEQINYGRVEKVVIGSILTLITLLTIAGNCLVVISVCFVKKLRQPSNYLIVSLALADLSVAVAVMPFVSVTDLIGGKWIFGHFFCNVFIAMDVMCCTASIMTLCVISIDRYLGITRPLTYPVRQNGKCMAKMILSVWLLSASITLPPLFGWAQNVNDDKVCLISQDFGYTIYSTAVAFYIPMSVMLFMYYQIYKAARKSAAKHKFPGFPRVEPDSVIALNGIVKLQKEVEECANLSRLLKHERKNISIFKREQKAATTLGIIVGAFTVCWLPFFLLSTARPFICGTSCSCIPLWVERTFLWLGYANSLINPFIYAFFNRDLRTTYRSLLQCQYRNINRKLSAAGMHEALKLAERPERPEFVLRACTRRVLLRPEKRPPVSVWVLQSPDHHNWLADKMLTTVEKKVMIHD

Row | pKb | Compound
1 | 7.1 | O=C(OC1CCN(CC[C@H]2CCCN2S(=O)(=O)c2ccccc2)CC1)c1ccc(F)cc1
2 | 7.26 | COc1ccccc1N1CCN(CCCNS(=O)(=O)c2ccc(F)cc2)CC1
